pIC50: −log10 of the molar value.
Molecular target: human PCSK9 (Homo sapiens, UniProt Q8NBP7)
Test: PCSK9 ligand binding TR-FRET assay (interference with binding of human PCSK9 to human LDLR)
Conditions: for Max % inhibition: PCSK9 FRET assay, efficacy (Amax), 100% = 1 uM unlabeled human PCSK9, 0% = DMSO; for pIC50: TR-FRET, human PCSK9 Alexa Fluor 647 / human LDLR extracellular domain-Europium Kryptate, read-out: PCSK9 FRET Assay IC50
Method: The PCSK9 binding of the compounds of the disclosure were measured using a time resolved fluorescence resonance energy transfer (TR-FRET) assay. This time resolved fluorescence resonance energy transfer (TR-FRET) assay measures the ability of a compound of the present disclosure to interfere with the binding of human PCSK9 to human LDLR, providing measures of both potency (IC50) and efficacy (Amax).
These solutions were pipetted into columns 1 and 11 of the compound plate. Threefold serial dilutions were generated in columns 2-10 and 12-20 of the compound plate by transferring 10 uL into 20 uL of DMSO. Columns 21 and 22 of the compound plate were negative controls containing DMSO alone.
An intermediate plate was generated in a Greiner V bottom plate by transferring 8 uL from each well of the master plate into a corresponding well containing 92 uL of assay buffer and mixing thoroughly.
A Proxi plate-low volume assay plate was used for the assay. […] For the positive control wells in columns 23 and 24 of the plate, 5 uL of unlabeled human PCSK9 was added at 4 uM in assay buffer containing 8% DMSO. Following a 30 minute incubation, 5 uL of 4 nM Human LDLR extracellular domain-Europium Kryptate was added and the mixture was incubated for an additional 2 hours.
The FRET ratio (FRET/Europium) was used for calculations.
Data is expressed as percent inhibition: (value−0%)/(100%−0%).

Chain of human PCSK9 (Q8NBP7 153-692): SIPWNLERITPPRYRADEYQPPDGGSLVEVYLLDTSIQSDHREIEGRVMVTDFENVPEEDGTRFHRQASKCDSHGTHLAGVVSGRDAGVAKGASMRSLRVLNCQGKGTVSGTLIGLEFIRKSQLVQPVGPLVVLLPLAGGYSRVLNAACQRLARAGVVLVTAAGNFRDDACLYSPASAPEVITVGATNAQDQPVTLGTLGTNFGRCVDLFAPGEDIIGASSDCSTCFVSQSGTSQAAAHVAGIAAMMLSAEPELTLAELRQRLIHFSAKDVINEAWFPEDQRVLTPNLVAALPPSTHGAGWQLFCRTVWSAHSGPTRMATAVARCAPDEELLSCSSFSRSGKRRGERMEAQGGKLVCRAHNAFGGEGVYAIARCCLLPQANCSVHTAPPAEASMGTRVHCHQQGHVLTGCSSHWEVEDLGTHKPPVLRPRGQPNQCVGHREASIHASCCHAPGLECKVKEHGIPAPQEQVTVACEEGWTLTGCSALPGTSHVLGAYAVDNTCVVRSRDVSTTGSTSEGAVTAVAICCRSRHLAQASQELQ
Chain of human PCSK9 (Q8NBP7 31-152 partner limits assumed): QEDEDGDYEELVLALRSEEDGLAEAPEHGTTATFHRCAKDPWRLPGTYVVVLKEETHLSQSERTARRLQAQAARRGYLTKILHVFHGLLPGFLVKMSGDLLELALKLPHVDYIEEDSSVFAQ

| SMILES | Max % inhibition | pIC50 |
| --- | --- | --- |
| C[C@H]1CNC(=O)C[C@H](Cc2ccc(Cl)cc2)N(C)C(=O)[C@H](CC(=O)N(C)C)NC(=O)[C@H](C)N(Cc2ccc(Cl)cc2Oc2ccc(-c3cnc(CN(C)C)n3C)cc2)C(=O)C[C@@H](Cc2ccccc2)C(=O)N1C [Compound 160, 2-((2S,5S,8S,13S,16R)-16-benzyl-1-(4-chloro-2-(4-(2-((dimethylamino)methyl)-1-methyl-1H-imidazol-5-yl)phenoxy)benzyl)-8-(4-chlorobenzyl)-2,7,13,14-tetramethyl-3,6,10,15,18-pentaoxo-1,4,7,11,14-pentaazacyclooctadecan-5-yl)-N,N-dimethylacetamide] | 91.45% | 8.12 |
| COC[C@@H]1NC(=O)C(CCN)N(Cc2ccc(Cl)cc2Oc2ccc(-c3cnc(CN(C)C)n3C)cc2)C(=O)C[C@@H](Cc2ccccc2)C(=O)N(C)[C@H]2CCCC[C@@H]2NC(=O)C[C@H](Cc2ccc(Cl)cc2)N(C)C1=O (single isomer, unassigned) [Compound 204] | 83.07% | 6.54 |
| COC[C@@H]1NC(=O)[C@H](CCCN2CCOCC2)N(Cc2ccc(Cl)cc2Oc2ccc(-c3cnc(CN4CCCC4)n3C)cc2)C(=O)C[C@@H](Cc2ccccc2)C(=O)N(C)[C@H]2CCCC[C@@H]2NC(=O)C[C@H](Cc2ccc(Cl)cc2)N(C)C1=O [Compound 252, (4S,7S,10S,14R,16aS,20aS)-14-benzyl-11-(4-chloro-2-(4-(1-methyl-2-(pyrrolidin-1-ylmethyl)-1H-imidazol-5-yl)phenoxy)benzyl)-4-(4-chlorobenzyl)-7-(methoxymethyl)-5,16-dimethyl-10-(3-morpholinopropyl)hexadecahydrobenzo[l][1,4,7,11,14]pentaazacyclooctadecine-2,6,9,12,15(3H)-pentaone] | 92.00% | 8.68 |
| COC[C@@H]1NC(=O)[C@H](C)N(Cc2c(OCC(F)(F)F)cc(Cl)cc2Oc2ccc(-c3cnc(CN4CCCC4)n3C)cc2)C(=O)C[C@@H](C)C(=O)N(C)[C@@H](C)CNC(=O)C[C@H](Cc2ccc(Cl)cc2)N(C)C1=O [Compound 7, (2S,5S,8S,13S,16R)-1-(4-chloro-2-(4-(1-methyl-2-(pyrrolidin-1-ylmethyl)-1H-imidazol-5-yl)phenoxy)-6-(2,2,2-trifluoroethoxy)benzyl)-8-(4-chlorobenzyl)-5-(methoxymethyl)-2,7,13,14,16-pentamethyl-1,4,7,11,14-pentaazacyclooctadecane-3,6,10,15,18-pentaone] | 93.00% | 8.00 |

Stronger by pIC50, values ahead:

| Max % inhibition | pIC50 | SMILES |
| --- | --- | --- |
| 95.65% | 8.89 | COC[C@@H]1NC(=O)[C@H](C)N(Cc2ccc(Cl)cc2Oc2ccc(-c3cnc(CN(C)C)n3C)cc2)C(=O)C[C@@H](Cc2ccc(F)c(F)c2F)C(=O)N(C)[C@@H](C)CNC(=O)C[C@H](Cc2ccc(Cl)cc2)N(C)C1=O [Compound 33, (2S,5S,8S,13S,16R)-1-(4-chloro-2-(4-(2-((dimethylamino)methyl)-1-methyl-1H-imidazol-5-yl)phenoxy)benzyl)-8-(4-chlorobenzyl)-5-(methoxymethyl)-2,7,13,14-tetramethyl-16-(2,3,4-trifluorobenzyl)-1,4,7,11,14-pentaazacyclooctadecane-3,6,10,15,18-pentaone] |
| 98.02% | 8.82 | COC[C@@H]1NC(=O)[C@H](C)N(Cc2ccc(Cl)cc2Oc2ccc(-c3cnc(CN4CCCC4)n3C)cc2)C(=O)C[C@@H](Cc2ccccc2)C(=O)N(C)[C@@H](C)CNC(=O)C[C@H](Cc2ccc(Cl)cc2)N(C)C1=O [Compound 138, (2S,5S,8S,13S,16R)-16-benzyl-1-(4-chloro-2-(4-(1-methyl-2-(pyrrolidin-1-ylmethyl)-1H-imidazol-5-yl)phenoxy)benzyl)-8-(4-chlorobenzyl)-5-(methoxymethyl)-2,7,13,14-tetramethyl-1,4,7,11,14-pentaazacyclooctadecane-3,6,10,15,18-pentaone] |
